# Results reported in PubChem BioAssay (NCI).
#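 Five concentrations, 48 hours, 96-well plates. TGI: concentration producing complete growth inhibition.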
# Legend:
# Assay in all cases: NCI-60 cell line screen, 48 h
# [1] = system: A549 NSCLC
# [2] = system: CCRF-CEM leukemia
# [3] = system: COLO 205 colon
# [4] = system: HL-60(TB) leukemia
# [5] = system: LXFL 529 NSCLC
# [6] = system: MDA-MB-231 breast
# [7] = system: NCI/ADR-RES ovarian
# [8] = system: OVCAR-5 ovarian
# [9] = system: OVCAR-8 ovarian
# [10] = system: SK-OV-3 ovarian
# [11] = system: SNB-75 CNS
Compound,TGI [1] [µM],TGI [2] [µM],TGI [3] [µM],TGI [4] [µM],TGI [5] [µM],TGI [6] [µM],TGI [7] [µM],TGI [8] [µM],TGI [9] [µM],TGI [10] [µM],TGI [11] [µM]
Cc1ccc(C(=O)NCc2ccccc2)cc1N=NN(C)C,> 100,> 100,> 100,> 100,> 100,> 100,> 100,> 100,> 100,> 100,
CC(=O)OC(CCC1(C)OC1COc1ccc(CCNC(=O)C=C(C)C)cc1)C(C)(C)OC(C)=O (stereo unspecified),> 100,> 92.7,> 92.1,> 56.7,> 100,> 100,47.9,> 100,> 100,> 100,98.1
Cc1ccc(NC(=O)C(=O)C2C(=O)NC(=O)NC2=O)cc1C,> 100,> 100,> 100,> 100,> 100,,,> 100,> 100,> 100,> 100
CCCCCCCCCCCC(=O)OC[C@@H](C[As](=O)(O)O)OC(=O)CCCCCCCCCCC,31.3,> 94.4,36.6,> 30,17.7,15.4,36.6,30.8,23.6,26.2,16.6
